Patent US8785452B2, “Anti-infective compounds” (priority 2008, dated 2014)
Values after ≈ are worked out from the molar mass of the structure shown. Where two headings read alike, the source gives them in different places.

System: M. tuberculosis H37Rv-GFP
Assay: microbe, parasite or virus in culture
Type: cell-based, Mycobacterium tuberculosis
Settings: Mycobacterium tuberculosis, H37RV; for inhibition at 20 µM: Macrophage
[1] = confirmation, 20 uM, intracellular, read-out: QIM Confirm % Inhibition 20 uM
[2] = primary screen, 20 μM, intracellular, read-out: Primary QIM % Inhibition
[3] = read-out: Primary QIM % Inhibition
[4] = read-out: QIM Confirm % Inhibition 20 uM

| SMILES | inhibition at 20 µM [1] [%] | inhibition at 20 µM [2] [%] | inhibition at 20 µM [3] [%] | inhibition at 20 µM [4] [%] | MIC (120 h, read-out: minimal inhibitory concentration (MIC)) [µg/mL] |
| --- | --- | --- | --- | --- | --- |
| CCC(=O)Nc1ccc(-c2csc(N/N=C/c3ccc(SC)cc3)n2)cc1 [IPK 000 163 27] | 17.9 | 69.5 | – | – | – |
| CCOc1ccc(NN=C(C#N)C#N)cc1 [IPK 000 170 72] | – | – | -29.5 | -21.3 | – |
| CCOc1ccc(NCCCCO)cc1 [IPK 000 172 54] | 40.4 | 4.1 | – | – | – |
| O=C(COc1ccc(F)cc1)Nc1nccs1 [IPK 000 247 44] | 97.1 | 89.1 | – | – | – |
| CCOc1ccc(C(=O)/C=C/c2ccccc2F)cc1 [IPK 000 172 34] | 12.5 | -82.4 | – | – | – |
| CC(C)CNC(=O)c1cc([N+](=O)[O-])cc([N+](=O)[O-])c1 [IPK 000 046 78] | – | – | 73.3 | 88.9 | – |
| Cc1ccn2cc(-c3ccc(F)cc3)nc2c1 [IPK 000 129 91] | 38.2 | -36 | – | – | – |
| CCOC(=O)c1sc(NC(=O)CCCc2ccccc2)nc1C [IPK 000 254 25] | 18.5 | 32.5 | – | – | – |
| O=C(Nc1ccc(C(F)(F)F)cc1)Nc1cccc(F)c1 [IPK 000 146 91] | 70 | 57 | – | – | – |
| COc1cc2ccccc2cc1C(=O)Nc1nccs1 [IPK 000 133 02] | 37.2 | -44.8 | – | – | – |
| CS(=O)(=O)c1nnnn1-c1ccccc1 [IPK 000 244 12] | 11.8 | 29.9 | – | – | – |
| O=C(Oc1cccc2cccnc12)c1ccccc1 [IPK 000 251 49] | – | – | 27 | 15 | – |
| O=C(Nc1ccc(Cl)cc1)Nc1ccc(C(F)(F)F)cc1 [IPK 000 146 98] | 26.5 | 55.8 | – | – | – |
| O=C(Nc1cccc(C(F)(F)F)c1)c1cccs1 [IPK 000 202 08] | 67.4 | 65.7 | – | – | – |
| CSc1ccc(/C=N/Nc2nc(-c3ccc(NC(=O)CCC(=O)O)cc3)cs2)cc1 [IPK 000 262 07] | 7.9 | 80.3 | – | – | – |
| CC(NC(=O)c1cc([N+](=O)[O-])cc([N+](=O)[O-])c1)c1ccccc1 (stereo not shown) [IPK 000 046 80] | – | – | 76.9 | 64.6 | – |
| C/C(=C\c1ccc2c(c1)OCO2)[N+](=O)[O-] [IPK 000 240 37] | – | – | 17 | 67.5 | – |
| Cc1ccc(/C=N/NC(=O)c2ccncc2)o1 [IPK 000 219 26] | 51.4 | 91.1 | – | – | – |
| O=C(O)c1cccc2c1NC(c1ccccc1[N+](=O)[O-])C1Cc3ccccc3C21 (stereo not shown) [IPK 000 241 72] | 28 | -43.3 | – | – | – |
| Nc1nc2ccccc2c(-c2cccc3ccccc23)c1CN1CC1 [IPK 000 222 04] | 85.8 | 65.4 | – | – | – |
| Cc1ccc(-c2c(CN3CCCCC3)c(N)nc3ccccc23)cc1 [IPK 000 222 00] | 86.2 | 74.4 | – | – | – |
| COc1ccc(/C=C2/c3ccccc3-c3ccc(C(=O)CCCCN4CCCCC4)cc32)cc1 [IPK 000 198 56] | 64.7 | 15.1 | – | – | – |
| O=C(COc1cccc(Cl)c1)N/N=C/c1ccc([N+](=O)[O-])o1 [IPK 000 147 98] | 72.3 | 6.3 | – | – | – |

| SMILES | inhibition at 20 µM [1] [%] | inhibition at 20 µM [2] [%] | inhibition at 20 µM [3] [%] | inhibition at 20 µM [4] [%] | MIC (120 h, read-out: minimal inhibitory concentration (MIC)) [µg/mL] |
| --- | --- | --- | --- | --- | --- |
| CCN(CC)c1ccc(/C=N/NC(=O)c2ccncc2)cc1 [IPK 000 195 99] | 69.5 | 79.1 | – | – | – |
| O=C(c1ccc([N+](=O)[O-])o1)N1CCCc2ccccc21 [IPK 000 161 32] | 17.8 | -37.9 | – | – | – |
| CC1=NN(C(N)=S)C(=O)/C1=N/Nc1ccccc1C [IPK 000 168 32] | 81.9 | 75.7 | – | – | – |
| C/C(=N/c1ccc(S(=O)(=O)N2CCOCC2)cc1)Nc1ccc(C(=O)O)c(O)c1 [IPK 000 128 37] | 26.5 | 43.8 | – | – | – |
| O=c1c(/C=N/Cc2ccco2)c(NCc2ccco2)nc2ccccn12 [IPK 000 130 26] | 29.9 | 66.3 | – | – | – |
| COc1cccc(C(O)c2cccs2)c1 (stereo not shown) [IPK 000 171 27] | 95.2 | 95.2 | – | – | – |
| CC(=O)COc1c([N+](=O)[O-])ccc(F)c1F [IPK 000 259 78] | 58.8 | 4.9 | – | – | – |
| C/C(=N\NC(=S)Nc1cccc(C)c1)c1ccccc1O [IPK 000 173 06] | 15.8 | 44 | – | – | – |
| CCOc1ccc(C(=O)NCCC(C)C)cc1 [IPK 000 210 83] | 48.2 | 70.4 | – | – | – |
| O=C1OCc2cc(NC(=O)C34CC5CC(CC(C5)C3)C4)ccc21 [IPK 000 249 14] | 68.6 | 45 | – | – | – |
| CCCCOC(=O)c1cc([N+](=O)[O-])c(Sc2nc3ccccc3[nH]2)c([N+](=O)[O-])c1 [IPK 000 141 58] | – | – | 58.2 | 59.2 | – |
| COc1cc(/C=N/NC(=O)c2ccncc2)cc(Br)c1OCc1ccccc1Cl [IPK 000 157 51] | 46.2 | 96 | – | – | – |
| CCOc1ncccc1C(=O)N/N=C/c1ccc([N+](=O)[O-])o1 [IPK 000 148 65] | 29.1 | 41.2 | – | – | – |
| CCOc1ccc(NCC(=O)n2nc(C)cc2C)cc1 [IPK 000 234 61] | -1.6 | -61 | – | – | – |
| C/C(=N\NC(=O)COc1cccc(Br)c1)c1ccccn1 [IPK 000 157 55] | 19.9 | 22 | – | – | – |
| O=c1[nH]cc(Sc2cccc3cccnc23)c(=O)[nH]1 [IPK 000 149 02] | 19.1 | 23.5 | – | – | – |
| O=C(NC12CC3CC(CC(C3)C1)C2)N1CCN(c2ccccc2)CC1 [IPK 000 249 84] | 80.9 | 78.2 | – | – | – |
| COc1ccc(-c2csc(-c3cccnc3)n2)cc1 [IPK 000 144 22] | 30 | -9.8 | – | – | – |
| Cc1ccc(CNC(=O)c2ccc(F)cc2)cc1 [IPK 000 205 42] | 69.3 | 71.5 | – | – | – |
| Cc1ccc(C(=O)NCCSC2CCCCC2)cc1[N+](=O)[O-] [IPK 000 229 50] | 83.6 | 60.1 | – | – | – |
| O=C(NNC(=O)c1cc([N+](=O)[O-])cc([N+](=O)[O-])c1)c1ccc(COc2ccc3c(c2)CCC3)cc1 [IPK 000 149 44] | – | – | 57.6 | 47.1 | – |
| COc1cccc(C(CC(=O)c2ccc(Cl)cc2)C(C#N)C#N)c1 (stereo not shown) [IPK 000 130 54] | 65.8 | 66.7 | – | – | – |
| O=C1Nc2ccccc2/C1=C(\c1ccccc1)c1nc2ccccc2[nH]1 [IPK 000 259 35] | 68.8 | 66 | – | – | – |

| SMILES | inhibition at 20 µM [1] [%] | inhibition at 20 µM [2] [%] | inhibition at 20 µM [3] [%] | inhibition at 20 µM [4] [%] | MIC (120 h, read-out: minimal inhibitory concentration (MIC)) [µg/mL] |
| --- | --- | --- | --- | --- | --- |
| C/C(Cn1nnc([N+](=O)[O-])n1)=N\Nc1c(Cl)cc(Cl)cc1Cl [IPK 000 150 48] | 16.1 | -96.3 | – | – | – |
| Cc1cccc(C(=O)NCCC(C)C)c1 [IPK 000 210 74] | 20.2 | 76.4 | – | – | – |
| CCC1=NN(C(=O)c2ccncc2)C(O)(C(F)(F)F)C1 (stereo not shown) [IPK 000 134 50] | 101 | 99.7 | – | – | – |
| CC(C)(C)c1ccc(-c2nc(Oc3ccc(O)cc3)c3ccccc3n2)cc1 [IPK 000 142 18] | 79.4 | 73.2 | – | – | – |
| O=C(c1cc([N+](=O)[O-])cc([N+](=O)[O-])c1)N1CCc2ccccc2C1 [IPK 000 046 86] | – | – | 26.6 | 40.8 | – |
| OC1CCCc2c1[nH]c1ccc(Br)cc21 (stereo not shown) [IPK 000 180 76] | 92.1 | 70.6 | – | – | – |
| NNC(=O)CSc1nc2ccccc2s1 [IPK 000 160 45] | 70.7 | 66 | – | – | – |
| CS(=O)(=O)c1nc(-c2ccc(Br)cc2)n[nH]1 [IPK 000 134 62] | 25.5 | -56.1 | – | – | – |
| O=C(CCc1ccccc1)N1CCN(Cc2ccccc2)CC1 [IPK 000 126 73] | 60.8 | 85.7 | – | – | – |
| CCOC(=O)c1sc(NC(=O)CCC2CCCCC2)nc1C [IPK 000 255 46] | 53.1 | 25 | – | – | – |
| CCCCS(=O)(=O)Nc1ccc(Cc2ccncc2)cc1 [IPK 000 249 12] | 53.2 | 23.6 | – | – | – |
| O=[N+]([O-])c1ccc(/C=N/c2ccccc2O)s1 [IPK 000 169 76] | 16.7 | -71.9 | – | – | – |
| CC(C)(C)c1ccc(O)c(C(=O)Oc2ccccc2)c1 [IPK 000 143 45] | 83.5 | 81.2 | – | – | – |
| O=[N+]([O-])c1ccc(/C=N/c2ccc(Cl)c([N+](=O)[O-])c2)o1 [IPK 000 178 24] | – | – | -26.4 | -4.1 | – |
| Cc1c(Cl)cccc1/N=C/c1ccc([N+](=O)[O-])o1 [IPK 000 167 54] | 16.5 | 19.5 | – | – | – |
| O=C(NCCc1ccccc1)c1ccc([N+](=O)[O-])o1 [IPK 000 235 09] | 36.4 | 46.2 | – | – | – |
| O=C(Nc1ccc(Cl)c(Cl)c1)c1ccc(Cn2cc(Cl)cn2)cc1 [IPK 000 180 16] | 69.8 | 46.1 | – | – | – |
| Cc1noc(NS(=O)(=O)c2ccc(N)cc2)c1C [IPK 000 254 12] | 13.2 | 30.3 | – | – | – |
| Cc1ccc(NC(=O)c2ccc(CSc3ccccn3)cc2)c(C)c1 [IPK 000 125 22] | 82 | 75.4 | – | – | – |
| NNC(=O)c1ccc(COc2ccc(Cl)cc2Cl)o1 [IPK 000 140 81] | 91.8 | 94.6 | – | – | – |
| CO[C@H]1/C=C/O[C@@]2(C)Oc3c(C)c(O)c4c(O)c(c(/C=N/N5CCN(C)CC5)c(O)c4c3C2=O)NC(=O)/C(C)=C\C=C\[C@H](C)[C@H](O)[C@@H](C)[C@@H](O)[C@@H](C)[C@H](OC(C)=O)[C@@H]1C [rifampin, reference compound] | – | – | – | – | 2.4 (≈ 2.92 µM) |
